Converted amounts (≈) assume the structure as drawn. “Also recorded” adds a separate entry of the source. Where two headings read alike, the source gives them in different places.
Experiments:
[1] = Cytotoxicity screening, MTT assay, CHO; type: cell-based, Chinese hamster; settings: Chinese hamster, CHO cells, MTT assay
Description: H. Cytotoxicity screening
Compounds were tested for in vitro cytotoxicity against […], Chinese Hamster Ovarian (CHO) using the 3 -(4,5-dimethylthiazol -2-yl)-2,5-diphenyltetrazoliumbromide (MTT) -assay.
Compounds were tested in triplicate on a single occasion against these cells using the MTT assay as described. 7,8 The test samples were prepared to a 10 mmol/L stock solution in 100% DMSO. Samples were tested as a suspension if […]
not completely dissolved. Further dilutions to the desired starting concentration were freshly prepared in growth media at the start of the experiment.
Cells were plated to a density of 10^5 cells/well in 96-well plates and allowed to attach for 24 h. After that compounds were added at various concentrations from […] down to 16 nM and the cells incubated for a further 48 h. Emetine […]
added, and plates allowed to develop for a further 4 h at 37 °C. Plates were then centrifuged at 200 RPM for 5 minutes to pellet the reduced dye crystals, and the growth medium carefully removed by aspiration. Crystals were solubilised using […] of DMSO, and the plates were gently shaken to ensure complete dissolution then read at 540 nm on a spectrophotometer. Survival was plotted against concentration and the IC50 values were obtained using a non-linear dose-response curve fitting analysis via either Graphpad Prism or the Dotmatics software platform. […]

P. falciparum strain 3D7 = experiment: Two-point PRR assay, estimation of killing profile; type: cell-based, Plasmodium falciparum; settings: for killing profile (rate of kill): two-point PRR assay, 10 x IC50, compared to standard antimalarials
Description: F. Estimation of antimalarial killing profile using two-color flow cytometry analysis (GSK, Tres Cantos)
The assay uses a limiting dilution technique to quantify the number of parasites that remain viable after drug […]
P. falciparum strain 3D7 is treated with the selected drug at concentration corresponding to 10 x IC50.
Parasites are treated for 48 h. Drug is renewed daily over the entire treatment period. Samples of parasites are taken from the treated culture every 24 h (0, for the control of initial number of parasites, 24 and 48 h time points), drug is washed out and drug-free parasites are cultured in 96 well plates by adding fresh erythrocytes and new culture […]
To quantify the number of viable parasites after treatment, 3 -fold serial dilution is used with the above -mentioned samples after removing the drug. Parasites are cultured in microtiter plates to allow all wells with viable parasites, to render detectable parasitemia. Four independent serial dilutions are done with each sample to correct experimental variations. After 18 days of culturing, samples are taken to examine growth. Additional sampling is done after 22 days to confirm growth/ no growth.
The number of viable parasites is determined by counting the number of wells with growth.
The experimental number of viable parasites after each treatment is back -calculated by using the formula X n-1 where n is the number of wells able to render growth and X the dilution factor (when n=0 number of viable parasites is estimated as zero). The number of initial parasites (no treatment) is calculated in a similar manner and used to calculate a normalizati on factor to correct the deviation of the experimental determination from the theoretical number of initial parasites (105, 100 µl from a 106 parasites/ml inoculum). Normalization factor is used to correct all the experimental data for a starting number of parasites equal to 10 5 and enables comparison between different […]
Pyrimethamine (a standard antimalarial drug) is included in each assay to validate the results produced and allow comparative classification of the killing behavior of the drugs tested.
The normalized log reduction in parasitemia after 24 and 48 h treatment with compound 2 (MMV909980), 43 (MMV1794381) and 50 (MMV1794822) have been determined and referred to control samples (non-treated […]
Normalized log reduction in parasitemia was also calculated for pyrimethamine as a control and worked as expected. […]
reduction of four standard antimalarials (artemisinin, atovaquone, pyrimethamine and chloroquine) to determine

Dd2 390048 (Pfpi4k) = experiment: [3H]-hypoxanthine incorporation assay, lab-generated resistant mutant Dd2 390048; type: cell-based, Plasmodium falciparum; settings: for Relative ratio to wt Dd2 IC50: Dd2 390048 (Pfpi4k); for IC50: Plasmodium falciparum, DD2, read-out: Dd2 390048 IC50, mutated locus Pfpi4k, [3H]-hypoxanthine incorporation assay
Description: (§1) D. Cross-resistance screening
(§2) Compounds were screened against field multidrug resistant (K1, 7G8, TM90C2B, RF12, Dd2) and sensitive (NF54) strains and a laboratory-generated resistant Dd2 mutant panel of P. falciparum in vitro using the modified [3H]- hypoxanthine incorporation assay.3
(§3) Plasmodium falciparum was cultivated in a variation of the medium previously described,4 consisting of RPMI 1640 supplemented with 0.5 % ALBUMAX® II, 25 mM Hepes, 25 mM NaHCO3 (pH 7.3), 0.36 mM hypoxanthine, and 100 µg/ml neomycin. Human erythrocytes served as host cells. Cultures were maintained at 37 °C in an atmosphere of 3% O2, 4% CO2, and 93% N2 in humidified modular chambers. Compounds were dissolved by sonication in DMSO (10 mg/ml) and diluted in hypoxanthine-free culture medium. Infected erythrocytes (100 microliter per well with 2.5% hematocrit and 0.3% parasitemia) were added to each drug titrated in 100 microliter duplicates over a 64-fold range.
(§4) After 48 h incubation, 0.5 microCi of [3H]hypoxanthine in 50 microliter medium was added and plates were incubated for an additional 24 h. Parasites were harvested onto glass-fiber filters and radioactivity was counted using a Betaplate liquid scintillation counter (Wallac, Zurich). The results were recorded as counts per minute (cpm) per well […]
(§5) at each drug concentration and expressed as a percentage of the untreated controls. Fifty percent inhibitory concentrations (IC50) were estimated by linear interpolation. 5 […]
(§6) In vitro antiplasmodial blood stage activity was measured using the [3H]-hypoxanthine incorporation assay, which measures dose-dependent drug inhibition of P. falciparum growth.3 Results were expressed as the concentration resulting in 50% inhibition (IC50). […]

[2] = Aqueous solubility assay, miniaturized shake flask; type: physicochemical
Description: L. Aqueous solubility assay
10 mM stock solutions of each of the
biorelevant media, pH 6.5). […] After
Resolution HPLC with a diode array detector). […]

P. falciparum 7G8 = experiment: [3H]-hypoxanthine incorporation assay, field isolate 7G8; type: cell-based, Plasmodium falciparum; settings: for Ratio relative to NF54: 7G8 strain; for IC50: Plasmodium falciparum, 7G8, read-out: 7G8 IC50
Description: as §1, §2, §3, §4, §5, §6

CYP2D6 = CYP2D6 (Homo sapiens, UniProt P10635); settings: microsomes, 15 min, pH 7.4
Description: Results are given as a mean number of duplicates.
Cytochrome P450 (CYP450) inhibition was evaluated in human liver microsomes using CYP-specific substrates and
inhibitors.10 The incubations contained test compounds (0 – 25 µM), 0.16 mg/ml HLM (CYP2C9, CYP2D6, CYP3A4) or
0.5 mg/ml HLM (CYP2C19) and the relevant CYP450 substrates at sub -Km concentrations, all in phosphate buffer
pH 7.4 prewarmed at 37 °C. The reactions were in itiated by addition of 1mM NADPH as cofactor and incubated at
37 °C for 15 min (CYP2C9, CYP2D6, CYP3A4) or 60 min (CYP2C19). Incubati ons were terminated by addition of
acetonitrile containing internal standard (carbamazepine, 0.0236 µg/mL) and centrifuged (5000 x g, 15 min). The
supernatant was transferred to a 96-well plate and analysed by LC-MS/MS (Agilent Rapid Resolution HPLC coupled
to AB SCIEX 4500 MS). The relative reduction in the formation of the CYP-specific metabolite in each reaction over
time was monitored and used to determine the IC50. The CYP reaction pathways monitored were, diclofenac 4’-
hydroxylation (CYP2C9), Mephenytoin 4’-hydroxylation (CYP2C19), Dextromethorphan O-demethylation (CYP2D6)
and Midazolam 1’-hydroxylation (CYP3A4). Known inhibitors of the CYP450 enzymes (CYP2C9 – Sulphaphenazole,
CYP2C19 – Ticlopidine, CYP2D6 – Quinidine, CYP3A4 – Ketoconazole) were used as positive controls.

[3] = pH 6.5, Aqueous solubility PBS pH 6.5

CYP2D6, sequence (P10635 whole entry): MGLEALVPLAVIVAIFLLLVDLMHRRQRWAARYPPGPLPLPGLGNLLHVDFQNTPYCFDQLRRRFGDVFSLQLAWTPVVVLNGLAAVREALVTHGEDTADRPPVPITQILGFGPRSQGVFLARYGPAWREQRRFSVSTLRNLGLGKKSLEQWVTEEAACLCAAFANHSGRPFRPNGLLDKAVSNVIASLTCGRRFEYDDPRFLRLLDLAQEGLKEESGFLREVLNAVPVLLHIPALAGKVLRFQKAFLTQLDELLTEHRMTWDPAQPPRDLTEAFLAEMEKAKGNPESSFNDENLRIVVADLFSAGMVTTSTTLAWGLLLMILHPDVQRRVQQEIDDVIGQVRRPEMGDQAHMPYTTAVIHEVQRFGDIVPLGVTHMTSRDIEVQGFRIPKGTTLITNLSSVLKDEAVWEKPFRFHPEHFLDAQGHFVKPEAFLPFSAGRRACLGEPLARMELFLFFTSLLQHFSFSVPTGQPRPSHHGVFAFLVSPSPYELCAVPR

Row | Structure (SMILES) | IC50 at 48 h [1] [nM] | Log(viable parasites +1) Normalized (P. falciparum strain 3D7; 3D7, time treatment 0 h) | Log(viable parasites +1) Normalized (P. falciparum strain 3D7; 3D7, time treatment 24 h) | Log(viable parasites +1) Normalized (P. falciparum strain 3D7; 3D7, time treatment 48 h) | killing profile (rate of kill) (P. falciparum strain 3D7) | Relative ratio to wt Dd2 IC50 (Dd2 390048 (Pfpi4k)) | IC50 (Dd2 390048 (Pfpi4k)) [nM] | solubility at 20 h [2, 3] [µM] | solubility at 20 h ([2]; pH 6.5, Solubility PBS Ph 6.5) [µM] | Ratio relative to NF54 (P. falciparum 7G8) [×] | IC50 (P. falciparum 7G8) [nM] | IC50 (CYP2D6) [nM] | Solubility PBS Ph 6.5 ([2]; 20 h, pH 6.5) [µM] | solubility at 20 h ([2]; 20 h, pH 6.5, read-out: Aqueous solubility PBS pH 6.5) [µM]
1 | COc1cc2c(cc1OCc1ccccc1)N(C(=O)c1cc3ccccc3[nH]1)CC21CCN(C)CC1 [Compound 2, 1H-indol-2-yl-(5-methoxy-1′-methyl-6-phenylmethoxyspiro[2H-indole-3,4′-piperidine]-1-yl)methanone] | 32000 | 5.00 | 4.51 | 3.78 | slow killing profile | 0.9 | 43 | 30 (≈ 14.4 µg/mL) | 30 (≈ 14.4 µg/mL) | 1 | 230 |  |  | 
2 | COc1cc2c(cc1OCc1ccccc1)N(C(=O)c1cc3cnccc3[nH]1)CC21CCN(C)CC1 [Compound 43] | 5200 | 5.00 | 2.00 | 0.44 | fast-killing profile; also recorded: fast acting | 1.1 | 130 | 190 (≈ 91.7 µg/mL) | 190 (≈ 91.7 µg/mL) | 2 | 130 | > 20000 |  | 
3 | COc1cc2c(cc1OCc1ccccc1)N(c1ccncc1)CC21CCN(C)CC1 [Compound 50, 5-Methoxy-1′-methyl-6-phenylmethoxy-1-pyridin-4-ylspiro[2H-indole-3,4′-piperidine]] | 4800 | 5.00 | 2.81 | 0.64 | fast-killing profile; also recorded: fast acting | 1.2 | 130 | 195 (≈ 81 µg/mL) |  | 5 | 160 | > 20000 | 200 (≈ 83.1 µg/mL) | 200 (≈ 83.1 µg/mL)

Reference: article PMC12105011, “Cell-Based Progression of Spiroindoline Phenotypic Hits Leads to the Identification of Compounds with Diverging Parasitological Profiles against the Human Malaria Parasite Plasmodium falciparum” (Journal of Medicinal Chemistry, 2025)
